Assay [1] has as its system edema of the paw caused by carrageenan. The experiment in a line: Model of acute inflammation by carrageenan in the paw of rats. Conditions: 100 mg/kg oral; for inhibition of the edema caused by carrageenan: therapeutic, 120 min after carrageenan, rats (FIG. 5). Type of assay: in vivo, male Wistar rats. For orientation: The carrageenan paw model is a standard test of acute inflammation.

The next assay deals with edema caused by CFA. Description: Model of polyarthritis induced by CFA in rats. Type of assay: in vivo, male Wistar rats. Conditions: 100 mg/kg oral, twice a day for 8 days, from day 14 to 21 after CFA; rats (FIG. 7).
In assay [2] the test system is edematogenic response caused by CFA. Description: Paw edema of chronic inflammation induced by CFA in mice. In kind it is in vivo, male Swiss mice. Conditions: 100 mg/kg oral, 1x a day for 7 days, starting 1 week after CFA; mice (FIG. 9). As to the method: (§1) To perform the experiments, male Wistar rats (180 to 200 g) or male Swiss mice (25 to 30 g) were used, coming from the animal house of the Federal University of Pelotas (UFPEL; Pelotas, RS). We used 5 to 8 animals per group. The animals were kept in Room 108, located in Block E, of the Vivarium of Building 12, of the PUCRS, on ventilated shelves outfitted with incoming and outgoing air filters (brand Alesco), with controlled temperature (22±1° C.) and light/dark cycle of 12 h (lights turned on at 7:00 a.m.; lights turned off at 7:00 p.m.). Within the shelves, the animals were kept in cages suitable for rodents, filled with pine shavings (changed three times a week). The animals received pelletized ration (brand Nuvilab) and filtered water (filter brand Jojaco) ad libitum. The experiments were conducted in the Applied Pharmacology Laboratory I, located in Block C, Building 12, of the PUCRS. During the experimental procedures, the laboratory temperature was maintained at 22±1° C. […] In this series of experiments, the depressive behavior associated with chronic inflammation in mice was evaluated. […] The increase in volume was measured by plethysmometer, two weeks after the application of the CFA. The difference between the volume of the right and left paws was quantified (in ml) and taken as an indicator of edema. […] The time of immobility was measured for a period of 6 min. […]

For assay [3], the system named is depressive behavior associated with the chronic inflammation caused by CFA. Description: Depressive behavior associated with chronic inflammation in mice (tail suspension, time of immobility). Type of assay: in vivo, male Swiss mice. Conditions: 100 mg/kg oral, 1x a day for 7 days, starting 1 week after CFA; immobility over 6 min; mice (FIG. 9). As to the method:
as §1

Take `Oc1ccc(C=Cc2cc(O)cc(O)c2)cc1` [resveratrol, 3,5,4′-trihydroxystilbene]: the “inhibition of the edema of the paw caused by carrageenan” value in assay [1] (preventive, 30 min prior to carrageenan, vs saline control, rats (FIG. 4)) was 31±7%. In addition, the “inhibition of the edema caused by carrageenan” value in assay [1] (at 180 min) was 35±8%; in assay [1] (at 240 min), 45±9%. For the same molecule, in the assay with edema caused by CFA, the “inhibition of the formation of edema caused by CFA” value stood at 17±5%. Also, in assay [2], the “percentage of reduction of the edematogenic response caused by CFA” value is 42±4%. In addition, in assay [3], the “depressive behavior (time of immobility)” value is given as “expressively reduced”.

The record behind these values is patent US8912234B2, “Composition containing resveratrol and/or derivatives thereof and plant oil, process for producing said composition, nutraceutical and/or pharmaceutical product, and method for enhancing the potential of resveratrol” (UNIAO Brasileria de Educacao e Assistencia—Mantenedora da …, priority 2009, dated 2014).
